{"source": "BindingDB's records for doi:10.1021/jm051056c", "about": "(Targegen, 2007)", "target": "Phosphatidylinositol 4,5-bisphosphate 3-kinase catalytic subunit gamma isoform (Homo sapiens, UniProt P48736)", "sequence (P48736 whole entry, canonical isoform)": "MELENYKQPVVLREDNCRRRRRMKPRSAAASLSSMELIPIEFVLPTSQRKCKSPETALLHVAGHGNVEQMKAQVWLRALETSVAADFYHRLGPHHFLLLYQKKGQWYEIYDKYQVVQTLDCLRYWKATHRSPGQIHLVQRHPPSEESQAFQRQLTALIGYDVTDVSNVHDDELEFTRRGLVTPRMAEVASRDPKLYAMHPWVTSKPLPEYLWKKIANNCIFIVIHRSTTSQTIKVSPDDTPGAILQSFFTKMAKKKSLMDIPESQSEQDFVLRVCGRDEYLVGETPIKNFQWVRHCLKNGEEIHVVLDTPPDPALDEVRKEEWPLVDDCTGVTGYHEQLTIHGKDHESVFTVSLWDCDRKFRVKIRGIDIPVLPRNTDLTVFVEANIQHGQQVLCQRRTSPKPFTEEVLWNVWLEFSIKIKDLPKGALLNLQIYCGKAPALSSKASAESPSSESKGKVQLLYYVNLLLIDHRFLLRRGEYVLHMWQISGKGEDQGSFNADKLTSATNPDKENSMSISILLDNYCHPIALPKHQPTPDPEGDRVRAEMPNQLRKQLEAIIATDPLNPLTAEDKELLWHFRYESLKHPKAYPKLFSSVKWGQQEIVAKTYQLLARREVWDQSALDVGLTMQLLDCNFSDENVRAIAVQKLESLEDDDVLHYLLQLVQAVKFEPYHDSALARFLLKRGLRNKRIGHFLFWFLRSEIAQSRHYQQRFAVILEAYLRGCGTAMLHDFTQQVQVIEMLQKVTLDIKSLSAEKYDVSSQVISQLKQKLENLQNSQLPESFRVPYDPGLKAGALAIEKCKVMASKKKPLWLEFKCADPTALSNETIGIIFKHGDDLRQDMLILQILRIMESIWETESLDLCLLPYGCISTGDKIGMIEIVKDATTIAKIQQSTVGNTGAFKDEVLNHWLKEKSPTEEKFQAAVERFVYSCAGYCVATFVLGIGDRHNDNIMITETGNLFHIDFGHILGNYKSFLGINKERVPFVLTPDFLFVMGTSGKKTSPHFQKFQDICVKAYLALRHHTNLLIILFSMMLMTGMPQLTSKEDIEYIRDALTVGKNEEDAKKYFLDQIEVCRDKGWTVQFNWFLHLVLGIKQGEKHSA", "assay": "Determination of PI3K Activity", "conditions": "pH 7.4; 22 °C", "note": "pIC50: −log10 of the molar value.", "data": [{"compound": "COc1cccc(-c2nc3nc(N)nc(N)c3nc2-c2cccc(OC)c2)c1", "note": "[6,7-bis(3-methoxyphenyl)pteridine-2,4-diamine]", "values": [{"measurement": "pIC50", "value": 4.90}]}]}
